The test system of one assay is FRAT2-C9M-TF1 cells. The assay is described as follows: EC50 titration, Alamar Blue, suspension cells. The following applies: Homo sapiens, 72 h, Alamar Blue. Format: cell-based, Human. As for the experimental part:
(§1) On the day of the assay compounds are used to prepare dilution series on Titration Plates which are plated at ten times their final screening concentration in 10 μl aliquots.
(§2) Suspension cells are split 24 hours prior to drug treatment in order to bring the cultures into the log phase of growth. On the day of the assay the cells are plated directly into the Titration Plates at the appropriate pre-determined seeding density (Table 1) in 90 μl volumes thus reducing the concentration of the compounds to their final test concentration. The plates are incubated for 72 hours at 37° C. and 5% CO2 after which time they are assayed by Alamar Blue.
(§3) The EC50 values are calculated using the values obtained from the Alamar Blue readout which are converted into a “Percentage of the Untreated Control” and using Graph Pad Prism these values are plotted against the logarithm of the test concentration. Using a non-linear regression analysis a sigmoidal dose-response curve is generated from which the EC50 is determined.

Assay [1] concerns C9M-TF1 cells. Nature of the assay: EC50 titration, Alamar Blue, suspension cells. In kind it is cell-based. The following applies: Homo sapiens, 72 h. As for the experimental part:
as §1, §2, §3

Assay [2] has as its system HT29 Colorectal adenocarcinoma. The assay is described as follows: Primary high-throughput screen, Alamar Blue, adherent cells. Format: cell-based. The following applies: Homo sapiens, HT-29; compound at 10 μM, 72 h; read-out: percentage kill, HT29. Here is the method: (§4) Adherent cells are plated at a pre-determined seeding density (Table 1) in flat-bottom 96 well plates 24 hours prior to drug treatment. The cell lines are plated in 100 μl volumes in each well. Cells are plated in all wells apart from those in Column 12 which contain 100 μL normal culture medium alone. These plates will be known as the Test Plates. The Test Plates are labelled with a Daughter Plate ID.
(§5) Daughter Plates containing 10 μl of a […] solution of test compound selected from among the candidate compounds stored at […] are thawed at room temperature. A 10 μL volume of 0.1% DMSO in PBS is added to all wells of Column 12 and the wells in Row A-F of Column 1. A 10 μl volume of a pre-determined concentration of the P13-Kinase inhibitor LY294002 is added to wells in Row G and H of Column 1. A 90 μl volume of the appropriate cell culture medium is then added to each well and mixed by repeated aspiration/dispensing. The compounds are at a final test concentration of 10 μM.
(§6) Once the Daughter Plates have been prepared the media is removed from all wells of the cell culture plate using an 8-Channel Vacuum Aspirator. The contents of the Daughter Plates are then transferred to the appropriate wells of their relevant Test Plates and the Test Plates are incubated for 72 h at 37° C. and 5% CO2. At the end of this period Test Plates are assayed by Alamar Blue. A 10 μl volume of Alamar Blue is added to all wells of the Test Plate. The Test Plates are incubated for […] at 37° C. and 5% CO2 and finally read using the BioTek SYNERGY plate reader (Excitation 530125 nm-Emission 590135 nm). Percentage inhibition is determined using Microsoft Excel spreadsheet calculations.
(§7) The figures appearing in the columns are the percentage kill achieved by that compound at 10 μM.

Assay [3] concerns LS123 Colon adenocarcinoma (Dukes' type B). The assay is described as above. Format: cell-based. The following applies: Homo sapiens, LS-123; compound at 10 μM, 72 h; read-out: percentage kill, LS123. Here is the method:
as §4, §5, §6, §7

Assay [4] relates to SW480 Colon adenocarcinoma (Dukes' type B). The description is as above. Format: cell-based. The following applies: Homo sapiens, compound at 10 μM, 72 h, read-out: percentage kill, SW480. As for the experimental part:
as §4, §5, §6, §7

For assay [5], the system named is A549 Non Small Cell Lung Carcinoma. The assay is described as above. In kind it is cell-based. The following applies: Homo sapiens, compound at 10 μM, 72 h, read-out: percentage kill, A549. Here is the method:
as §4, §5, §6, §7

The test system of assay [6] is MCF7 Mammary gland adenocarcinoma. The description is as above. In kind it is cell-based. The following applies: Homo sapiens, compound at 10 μM, 72 h, read-out: percentage kill, MCF7. Here is the method:
as §4, §5, §6, §7

The subject of assay [7] is U1810 Non Small Cell Lung Carcinoma. Described as above. In kind it is cell-based. The following applies: U-1810; compound at 10 μM, 72 h; read-out: percentage kill, U1810. Here is the method: as §4, §5, §6, §7
For assay [8], the system named is PC3 Prostate carcinoma (bone metastasis). The description is as above. In kind it is cell-based. The following applies: compound at 10 μM, 72 h; read-out: percentage kill, PC3. As for the experimental part: as §4, §5, §6, §7
The subject of assay [9] is CACO2 Colon adenocarcinoma. Described as above. Format: cell-based. The following applies: Homo sapiens, Caco-2; compound at 10 μM, 72 h; read-out: percentage kill, CAC02. As for the experimental part: as §4, §5, §6, §7
Assay [10] concerns NCI ADR RES Breast adenocarcinoma (pleural effusion). Described as above. Format: cell-based. The following applies: Homo sapiens, compound at 10 μM, 72 h, read-out: percentage kill, NCI ADR RES. Here is the method:
as §4, §5, §6, §7

For assay [11], the system named is breast cancer cell line MCF7. Nature of the assay: EC50 titration, Alamar Blue, adherent cells. In kind it is cell-based. The following applies: Homo sapiens, 72 h. Here is the method: as §1
(§8) For adherent cell lines plated 24 hours previously, a 90 μl volume of the appropriate cell culture medium is then added to each well of the Titration Plates and mixed by repeated aspiration/dispensing, thus taking the compounds to their final test concentration. Once the Titration Plates have been prepared the media is removed from all wells of the cell culture plate and the contents of the Titration Plates are then transferred to the appropriate wells of their relevant Test Plates and incubated for 72 h at 37° C. and 5% CO2 after which time they are assayed by Alamar Blue. Using a combination of Microsoft Excel and Graph Pad Prism, EC50s are determined.
as §3

Assay [12] concerns non-transformed breast cell line MCF10A. The assay is described as follows: EC50 titration, Alamar Blue, adherent cells. Format: cell-based. The following applies: Homo sapiens, MCF-10A, 72 h. Here is the method: as §1, §8, §3
For assay [13], the system named is colon cancer cell line HT29. The assay is described as follows: EC50 titration, Alamar Blue, adherent cells. In kind it is cell-based. The following applies: Homo sapiens, HT-29, 72 h. As for the experimental part: as §1, §8, §3
The subject of assay [14] is FRAT2 overexpresing TF1 (FRAT2-C9M-TF1 cells). The assay is described as follows: Primary high-throughput screen, Alamar Blue, suspension cells. Format: cell-based. The following applies: Homo sapiens, compound at 10 μM, 72 h. Here is the method:
as §5, §6
(§9) Suspension cells are split 24 hours prior to drug treatment in order to bring the cultures into the log phase of growth. On the day of the assay the cells are plated directly into the Daughter Plates at the appropriate pre-determined seeding density (Table 1) in 90 μl volumes, the concentration of the test compounds thus being reduced to 10 μM. Cells are plated in all wells apart from those in Column 12 which contain 901 normal culture medium alone. The plates are incubated for 72 h at 37° C. and 5% CO2 after which time they are assayed by Alamar Blue as per the preceding example.
as §7

The test system of assay [15] is C9M-TF1 cells. The description is as above. Format: cell-based. The following applies: Homo sapiens, 72 h, compound at 10 μM, read-out: percentage kill, C9M. As for the experimental part:
as §5, §6, §9, §7

Where [16] appears, read: minus GMCSF, read-out: percentage kill, FRAT2−.
Setting [17] is: plus GMCSF, read-out: percentage kill, FRAT2+.

Read-outs that look alike come from different tables or passages of the source.

`COc1cccc(-c2cnn3c(NCc4ccccn4)ccnc23)c1` [Compound 1]: the EC50 was determined as 11.8 µM with FRAT2-C9M-TF1 cells (absence of growth factor); 12.9 µM with FRAT2-C9M-TF1 cells (presence of growth factor); 26 µM in the assay on C9M-TF1 cells [1]; 3.8 µM in assay [11]; 18.6 µM in assay [12]; 3.98 µM in assay [13]. Also, the inhibition at 10 µM in assay [2] worked out at 58%; in assay [3], 91%; in assay [4] it was 33%; in [5], 34%; in [6], 68%; in assay [7], 15%. The inhibition at 10 µM in assay [8] was -4%; in assay [9], 61%; in [10], 58%; in assay [14] (setting [16]), 54%; in assay [14] (setting [17]), 28%; in the assay with C9M-TF1 cells [15] (first C9M column), -1%. In addition, the inhibition at 10 µM in the assay with C9M-TF1 cells [15] (second C9M column) is 2%.
As to `COc1ccc(-c2cnn3c(NCc4ccccn4)ccnc23)c(OC)c1` [Compound 4], the EC50 in the assay with FRAT2-C9M-TF1 cells (absence of growth factor) came out at 2.75 µM; in the assay with FRAT2-C9M-TF1 cells (presence of growth factor) it was 5.62 µM; with C9M-TF1 cells [1], 21.4 µM; in assay [11] it was 1.78 µM; in assay [12], 14.5 µM; in assay [13], 1.58 µM. Besides, the inhibition at 10 µM was found to be 71% in assay [2]; 92% in [3]; 53% in assay [4]; 12% in assay [5]; 64% in [6]; 16% in [7]. For the same compound, the inhibition at 10 µM in [8] was -4%; in assay [9], 35%; in assay [10] it was 67%; in [14] (setting [16]), 71%; in [14] (setting [17]), 36%; in the assay with C9M-TF1 cells [15] (first C9M column), 1%. The inhibition at 10 µM with C9M-TF1 cells [15] (second C9M column) amounted to 1%.
`c1ccc(-c2cnn3c(NCc4ccccn4)ccnc23)cc1` [Compound 5]: the half-maximal effective concentration (EC50) in the assay on FRAT2-C9M-TF1 cells (absence of growth factor) was 3.63 µM; in the assay with FRAT2-C9M-TF1 cells (presence of growth factor) it was 5.75 µM; in the assay with C9M-TF1 cells [1] it was 16.6 µM; in [11], 1.51 µM; in assay [12] it was 12.9 µM; in assay [13], 1.58 µM. For the same compound, the inhibition at 10 µM in assay [2] was 75%; in [3], 87%; in assay [4], 62%; in assay [5] it was 10%; in assay [6], 87%; in assay [7], 24%. For the same compound, the inhibition at 10 µM in [8] is -92%; in assay [9], 78%; in assay [10], 63%; in assay [14] (setting [16]) it was 61%; in assay [14] (setting [17]), 42%; with C9M-TF1 cells [15] (first C9M column) it was 1%. In the assay with C9M-TF1 cells [15] (second C9M column), the inhibition at 10 µM is -11%.
`Fc1ccc(-c2cnn3c(NCc4ccccn4)ccnc23)cc1Cl` [Compound 11]: the inhibition at 10 µM in assay [2] is 25%; in [3], 22%; in [4], -6%; in assay [5], 5%; in assay [6], 22%; in assay [7], 13%. Also, the inhibition at 10 µM in [8] was -85%; in assay [9], 61%; in assay [10], 18%; in assay [14] (setting [16]) it was 71%; in assay [14] (setting [17]), 35%; in the assay with C9M-TF1 cells [15] (first C9M column) it was 1%. Moreover, the inhibition at 10 µM in the assay with C9M-TF1 cells [15] (second C9M column) was -6%.
Take `ClCc1ccccc1-c1cnn2c(NCc3cccs3)ccnc12` [Compound 12]: the inhibition at 10 µM was -5% in [2]; 31% in assay [3]; -22% in [4]; 4% in assay [5]; 36% in assay [6]; 18% in assay [7]. For the same compound, the inhibition at 10 µM was -45% in [8]; 17% in assay [9]; -12% in [10]; 52% in assay [14] (setting [16]); 19% in [14] (setting [17]); 0% in the assay with C9M-TF1 cells [15] (first C9M column). Besides, the inhibition at 10 µM in the assay on C9M-TF1 cells [15] (second C9M column) came to 0%.
As to `c1ccc(CNc2ccnc3c(-c4ccc(N5CCOCC5)cc4)cnn23)nc1` [Compound 13], the inhibition at 10 µM in assay [2] was -13%; in assay [3], 55%; in assay [4], -4%; in [5], 18%; in assay [6], 56%; in assay [7] it was 13%. Further, the inhibition at 10 µM was -37% in assay [8]; 27% in assay [9]; 28% in assay [10]; 61% in assay [14] (setting [16]); 38% in [14] (setting [17]); -1% with C9M-TF1 cells [15] (first C9M column). For the same compound, the inhibition at 10 µM in the assay with C9M-TF1 cells [15] (second C9M column) was -1%.
For the compound `Clc1cccc(Nc2ccn3ncc(-c4ccncc4)c3n2)c1` [Compound 14], the inhibition at 10 µM in assay [2] was determined as 51%; in [3], 13%; in [4], 10%; in [5], 26%; in assay [6], 26%; in assay [7], 2%. Moreover, the inhibition at 10 µM in [8] was -4%; in assay [9], 46%; in [10] it was 2%; in [14] (setting [16]) it was 50%; in assay [14] (setting [17]) it was 38%; in the assay with C9M-TF1 cells [15] (first C9M column) it was 45%. In the assay with C9M-TF1 cells [15] (second C9M column), the inhibition at 10 µM was 27%.

Values taken from patent US20080300263A1, “Pyrazolo [1,5-a] pyrimidine compounds and pharmaceutical compositions containing them” (EiRx Therapeutics plc, priority 2005, published 2008).
